Columns and labels:
[1] = tested on: HIF-HRE transcriptional activity in SKN:HRE-MLuc cells (reflects FIH-1 inhibition); assay: HIF activity under hypoxia, HRE-MLuc luciferase reporter assay; assay type: cell-based, human; conditions: for activation at 100 µM / minimal effective concentration: Homo sapiens; for activation at 100 µM: read-out: 100 μM Activity (RLU intensity at 100 μM stimulation compared with the positive control DMOG); for minimal effective concentration: doses 100, 25, 6.3, 1.6 μM, DMOG 100 μM as positive control, read-out: 25% Activity (lower dose limit showing 25% of the RLU intensity of the positive control DMOG); for HIF activity (HRE-MLuc reporter), result in words: hypoxic conditions (3% O2), 24 h, reference compounds at 100 μM
Protocol: To evaluate HIF transactivation following FIH-1 inhibition […], we employed a luciferase reporter assay system in the human neuroblastoma cell line SK-N-BE(2)c. […] Hereafter these HRE reporter cells were designated SKN:HRE-MLuc cells.
SKN:HRE-MLuc (4 × 10^4) were incubated for 24 h on a 96 well culture plate. The medium was replaced with complete media and the test compounds (100, 25, 6.3 and 1.6 μM). DMSO (0.1%) was used as a vehicle control, DMOG (100 μM) and FG4592 (100 μM) were used as a PHDs or FIH-1 inhibitor. The cells were incubated for 24 h under a humidified atmosphere of 5% CO2 and 3% O2 at 37 °C. After incubation, the MLuc activity in culture media was measured with luciferase substrate (Takara, Shiga, Japan) by LB960 luminometer (Berthold, Wildbad, Germany). The HIF activity was calculated as the MLuc intensity, based on the vehicle and positive controls. The lower limit dose out of 100 μM, 25 μM, 6.3 μM, 1.6 μM was listed in Table 1 and Table 2, where 25% RLU intensity was measured using DMOG as a positive control.

SKN:HRE-MLuc cells = assay: MTS assay (cellular toxicity); assay type: cell-based, human; conditions: MTS assay
Description: Next, we evaluated the activation of HIF by furan- and thiophene-2-carbonyl amino acid derivatives using the evaluation methods described above. Simultaneously, we investigated cellular toxicity for those derivatives with a 3-(4,5-dimethylthiazol-2-yl)-5-(3-carboxymethoxyphenyl)-2-(4-sulfophenyl)-2H-tetrazolium (MTS) assay. To indicate cellular membrane permeability, the partition coefficients, which are frequently represented by calculated logP (clogP) are listed in Table 1 and Table 2.
Cellular toxicity was measured using the CellTiter 96® Aqueous One Solution Cell Proliferation Assay kit (Promega, Madison, WI, USA). The cells were stimulated with each compound and treated with the CellTiter solution. After incubation for 3 h, the absorbance of the solutions at 492 nm was measured by Multiskan FC (Thermo Fisher Scientific, Waltham, MS, USA). As a negative control, wells with culture media were used. Wells treated with DMSO (0.1%) were used as a positive control. The IC50 values were determined using these controls.

[2] = 100 μM, SKN:HRE-MLuc cells, 3% O2, 24 h
[3] = SKN:HRE-MLuc cells, 3% O2, 24 h

COC(=O)CNC(=O)c1ccco1 [Compound 1, Methyl (furan-2-carbonyl)glycinate] was tested, and the activation at 100 µM [1, 2] was 20%, the minimal effective concentration [1, 3] was 25 µM and the “HIF activity (HRE-MLuc reporter), result in words” value [1] was “stabilized HIF and transactivated the HRE-driven MLuc reporter”. For the same compound, the IC50 (SKN:HRE-MLuc cells; Homo sapiens) was > 100 µM.

With COC(=O)CNC(=O)c1cccs1 [Compound 2, Methyl (thiophene-2-carbonyl)glycinate] the activation at 100 µM [1, 2] was 0% and the IC50 (SKN:HRE-MLuc cells; Homo sapiens) was > 100 µM.

With COC(=O)[C@H](Cc1c[nH]c2ccccc12)NC(=O)c1ccco1 [Compound 3, (S)-Methyl (furan-2-carbonyl)tryptophanate] the activation at 100 µM [1, 2] was 0% and the IC50 (SKN:HRE-MLuc cells; Homo sapiens) was > 100 µM.

With COC(=O)[C@@H](Cc1c[nH]c2ccccc12)NC(=O)c1ccco1 [Compound 4, (R)-Methyl (furan-2-carbonyl)tryptophanate] the activation at 100 µM [1, 2] was 0% and the IC50 (SKN:HRE-MLuc cells; Homo sapiens) was > 100 µM.

COC(=O)[C@H](Cc1c[nH]c2ccccc12)NC(=O)c1cccs1 [Compound 5, (S)-Methyl (thiophene-2-carbonyl)tryptophanate] was tested, and the activation at 100 µM [1, 2] was 0% and the IC50 (SKN:HRE-MLuc cells; Homo sapiens) was > 100 µM.

With COC(=O)[C@@H](Cc1c[nH]c2ccccc12)NC(=O)c1cccs1 [Compound 6, (R)-Methyl (thiophene-2-carbonyl)tryptophanate] the activation at 100 µM [1, 2] was 0% and the IC50 (SKN:HRE-MLuc cells; Homo sapiens) was > 100 µM.

In the case of COC(=O)[C@@H](Cc1ccccc1)NC(=O)c1ccc(C)o1 [Compound 8, (R)-Methyl (5-methylfuran-2-carbonyl)phenylalaninate], the activation at 100 µM [1, 2] is reported as 2% and the IC50 (SKN:HRE-MLuc cells; Homo sapiens) is reported as > 100 µM.

For COC(=O)[C@@H](Cc1c[nH]c2ccccc12)NC(=O)c1ccc(C)o1 [Compound 10, (R)-Methyl (5-methylfuran-2-carbonyl)tryptophanate], the activation at 100 µM [1, 2] was 0%, the minimal effective concentration [1, 3] was 6.3 µM and the IC50 (SKN:HRE-MLuc cells; Homo sapiens) was > 100 µM.

Cc1ccc(C(=O)NCC(=O)O)s1 [Compound 11, (5-Methylthiophene-2-carbonyl)glycine] was tested, and the activation at 100 µM [1, 2] was 23%, the minimal effective concentration [1, 3] was 25 µM and the IC50 (SKN:HRE-MLuc cells; Homo sapiens) was > 100 µM.

For Cc1ccc(C(=O)N[C@@H](C)C(=O)O)s1 [Compound 12, (S)-(5-Methylthiophene-2-carbonyl)alanine], the activation at 100 µM [1, 2] was 18% and the IC50 (SKN:HRE-MLuc cells; Homo sapiens) was > 100 µM.

With CCOC(=O)[C@H](C)NC(=O)c1ccc(C)s1 [Compound 13, (S)-Ethyl (5-methylthiophene-2-carbonyl)alaninate] the activation at 100 µM [1, 2] was 0% and the IC50 (SKN:HRE-MLuc cells; Homo sapiens) was > 100 µM.

For COC(=O)[C@@H](Cc1ccccc1)NC(=O)c1ccc(C)s1 [Compound 14, (R)-Methyl (5-methylthiophene-2-carbonyl)phenylalaninate], the activation at 100 µM [1, 2] was 0% and the IC50 (SKN:HRE-MLuc cells; Homo sapiens) was > 100 µM.

CCOC(=O)[C@H](Cc1ccccc1)NC(=O)c1ccc(C)s1 [Compound 15, (S)-Ethyl (5-methylthiophene-2-carbonyl)phenylalaninate] was tested, and the activation at 100 µM [1, 2] was 12%, the minimal effective concentration [1, 3] was 25 µM and the IC50 (SKN:HRE-MLuc cells; Homo sapiens) was > 100 µM.

In the case of Cc1ccc(C(=O)N[C@H](Cc2c[nH]c3ccccc23)C(=O)O)s1 [Compound 16, (R)-(5-methylthiophene-2-carbonyl)tryptophan], the activation at 100 µM [1, 2] is reported as 30%, the minimal effective concentration [1, 3] is reported as 100 µM and the IC50 (SKN:HRE-MLuc cells; Homo sapiens) is reported as > 100 µM.

For CCOC(=O)[C@H](Cc1c[nH]c2ccccc12)NC(=O)c1ccc(C)s1 [Compound 17, (S)-Ethyl (5-methylthiophene-2-carbonyl)tryptophanate], the activation at 100 µM [1, 2] was 49%, the minimal effective concentration [1, 3] was 100 µM and the IC50 (SKN:HRE-MLuc cells; Homo sapiens) was > 100 µM.

For CCOC(=O)[C@@H](Cc1c[nH]c2ccccc12)NC(=O)c1ccc(C)s1 [Compound 18, (R)-Ethyl (5-methylthiophene-2-carbonyl)tryptophanate], the activation at 100 µM [1, 2] was 52%, the minimal effective concentration [1, 3] was 100 µM and the IC50 (SKN:HRE-MLuc cells; Homo sapiens) was > 100 µM.

In the case of O=C(N[C@@H](Cc1ccccc1)C(=O)O)c1ccc(-c2ccccc2)o1 [Compound 19, (S)-(5-Phenylfuran-2-carbonyl)phenylalanine], the activation at 100 µM [1, 2] is reported as 0% and the IC50 (SKN:HRE-MLuc cells; Homo sapiens) is reported as > 100 µM.

With COC(=O)[C@H](Cc1ccccc1)NC(=O)c1ccc(-c2ccccc2)o1 [Compound 20, (S)-Methyl (5-phenylfuran-2-carbonyl)phenylalaninate] the activation at 100 µM [1, 2] was 10% and the IC50 (SKN:HRE-MLuc cells; Homo sapiens) was > 100 µM.

With C[C@H](NC(=O)c1ccc(-c2ccccc2)s1)C(=O)O [Compound 21, (S)-(5-Phenylthiophene-2-carbonyl)alanine] the activation at 100 µM [1, 2] was 0% and the IC50 (SKN:HRE-MLuc cells; Homo sapiens) was > 100 µM.

For CCOC(=O)[C@H](C)NC(=O)c1ccc(-c2ccccc2)s1 [Compound 22, (S)-Ethyl (5-phenylthiophene-2-carbonyl)alaninate], the activation at 100 µM [1, 2] was 16% and the IC50 (SKN:HRE-MLuc cells; Homo sapiens) was > 100 µM.

In the case of O=C(N[C@@H](Cc1ccccc1)C(=O)O)c1ccc(-c2ccccc2)s1 [Compound 23, (S)-(5-Phenylthiophene-2-carbonyl)phenylalanine], the activation at 100 µM [1, 2] is reported as 0% and the IC50 (SKN:HRE-MLuc cells; Homo sapiens) is reported as > 100 µM.

In the case of COC(=O)[C@H](Cc1ccccc1)NC(=O)c1ccc(-c2ccccc2)s1 [Compound 24, (S)-Methyl (5-phenylthiophene-2-carbonyl)phenylalaninate], the activation at 100 µM [1, 2] is reported as 7% and the IC50 (SKN:HRE-MLuc cells; Homo sapiens) is reported as > 100 µM.

COC(=O)[C@H](Cc1c[nH]c2ccccc12)NC(=O)c1ccc(-c2ccccc2)s1 [Compound 25, (S)-Methyl (5-phenylthiophene-2-carbonyl)tryptophanate] was tested, and the activation at 100 µM [1, 2] was 0% and the IC50 (SKN:HRE-MLuc cells; Homo sapiens) was > 100 µM.

For CCOC(=O)[C@H](Cc1ccccc1)NC(=O)c1ccc(-c2ccc(-c3ccccc3)cc2)s1 [Compound 32, (S)-Ethyl (5-((1,1′-biphenyl)-4-yl)thiophene-2-carbonyl)phenylalaninate], the activation at 100 µM [1, 2] was 0% and the IC50 (SKN:HRE-MLuc cells; Homo sapiens) was > 100 µM.

COC(=O)CNC(=O)c1ccc(-c2ccc(Oc3ccccc3)cc2)s1 [Compound 33, Methyl (5-(4-phenoxyphenyl)thiophene-2-carbonyl)glycinate] was tested, and the activation at 100 µM [1, 2] was 0% and the IC50 (SKN:HRE-MLuc cells; Homo sapiens) was > 100 µM.

With COC(=O)[C@H](C)NC(=O)c1ccc(-c2ccc(Oc3ccccc3)cc2)s1 [Compound 34, (S)-Methyl (5-(4-phenoxyphenyl)thiophene-2-carbonyl)alaninate] the activation at 100 µM [1, 2] was 0% and the IC50 (SKN:HRE-MLuc cells; Homo sapiens) was > 100 µM.

In the case of CCOC(=O)[C@H](Cc1ccccc1)NC(=O)c1ccc(-c2ccc(Oc3ccccc3)cc2)s1 [Compound 35, (S)-Ethyl (5-(4-phenoxyphenyl)thiophene-2-carbonyl)phenylalaninate], the activation at 100 µM [1, 2] is reported as 0% and the IC50 (SKN:HRE-MLuc cells; Homo sapiens) is reported as > 100 µM.

In the case of COC(=O)[C@H](Cc1c[nH]c2ccccc12)NC(=O)c1ccc(-c2ccc(Oc3ccccc3)cc2)s1 [Compound 36, (S)-Methyl (5-(4-phenoxyphenyl)thiophene-2-carbonyl)tryptophanate], the activation at 100 µM [1, 2] is reported as 0% and the IC50 (SKN:HRE-MLuc cells; Homo sapiens) is reported as > 100 µM.

With CCOC(=O)[C@H](Cc1ccccc1)NC(=O)c1cc2ccccc2o1 [Compound 37, (S)-Ethyl (benzofuran-2-carbonyl)phenylalaninate] the activation at 100 µM [1, 2] was 0% and the IC50 (SKN:HRE-MLuc cells; Homo sapiens) was > 100 µM.

For COC(=O)CNC(=O)c1cc2ccccc2s1 [Compound 39, Methyl (benzothiophene-2-carbonyl)glycinate], the activation at 100 µM [1, 2] was 13% and the IC50 (SKN:HRE-MLuc cells; Homo sapiens) was > 100 µM.

CCOC(=O)[C@H](C)NC(=O)c1cc2ccccc2s1 [Compound 40, (S)-Ethyl (benzothiophene-2-carbonyl)alaninate] was tested, and the activation at 100 µM [1, 2] was 0% and the IC50 (SKN:HRE-MLuc cells; Homo sapiens) was > 100 µM.

For CCOC(=O)[C@H](Cc1ccccc1)NC(=O)c1cc2ccccc2s1 [Compound 41, (S)-Ethyl (benzothiophene-2-carbonyl)phenylalaninate], the activation at 100 µM [1, 2] was 2% and the IC50 (SKN:HRE-MLuc cells; Homo sapiens) was > 100 µM.

COC(=O)[C@H](Cc1c[nH]c2ccccc12)NC(=O)c1cc2ccccc2s1 [Compound 43, (S)-Methyl (benzothiophene-2-carbonyl)tryptophanate] was tested, and the activation at 100 µM [1, 2] was 0% and the IC50 (SKN:HRE-MLuc cells; Homo sapiens) was > 100 µM.

In the case of COC(=O)[C@H](Cc1ccc(O)cc1)NC(=O)c1cc2ccccc2s1 [Compound 44, (S)-Methyl (benzothiophene-2-carbonyl)tyrosinate], the activation at 100 µM [1, 2] is reported as 0% and the IC50 (SKN:HRE-MLuc cells; Homo sapiens) is reported as > 100 µM.

In the case of COC(=O)C(=O)N[C@H](Cc1ccccc1)C(=O)OC [DM-NOFD, dimethyl N-oxalyl-D-phenylalanine, reference compound], the “HIF activity (HRE-MLuc reporter), result in words” value [1] is reported as “significantly enhanced HIF activity”.

For “(R)-Ethyl (benzothiophene-2-carbonyl)phenylalaninate [Compound 42]”, the “100 μM Activity (RLU intensity at 100 μM stimulation compared with the positive control DMOG)” value [1, 2] was 0% and the IC50 (SKN:HRE-MLuc cells) was > 100 µM.
